In patent US11844803B2, “Renal dysfunction improving drug comprising optical isomer of 1,4-benzothiazepine-1-oxide derivative” (AETAS PHARMA CO., LTD., priority 2017, dated 2023):
Read-outs that look alike come from different tables or passages of the source.

Tests used:
human renal function = experiment: Action on human renal function: 8-hour urine volume after i.v. administration, double-blinded; type: in vivo, adult human (male); settings: for total urine volume from 0 to 8 hours after administration: hydrochloride, 6 persons, placebo 459.8 (±184.1)
Description: After an adult was caused to completely urinate before administration of the compound (A), the compound (A) was administered to the adult. The study was performed in a double-blinded manner.
(§1) Method: Three groups including a group with 0 mg/kg of the compound (A) being administered (placebo group: 8 persons), a group with 0.05 mg/kg of the compound (A) being administered (6 persons), and a group with 0.15 mg/kg of the compound (A) being administered (6 persons) were made. The hydrochloride of the compound (A) was dissolved in physiological saline and intravenously administered at a rate of 2.5 mL/min for 20 minutes. The urine volume from a time immediately after administration to a time after 8 hours of administration and the maximum plasma concentration immediately after administration were measured.

[1] = tested on: ischemia/reperfusion injury in kidneys; experiment: Rat kidney ischemia/reperfusion injury model (renal arteries clamped 45 minutes, then reperfusion); type: in vivo, SD rats; settings: 48 hours after administration; hydrochloride, 6 mg/kg in total; n=6; placebo 6.07±0.36; before administration 0.27±0.01
Description: Method: Eleven 8-week-old male SD rats were used and laparotomized under anesthesia, the renal artery of the left kidney, and then after 1 minute, that of the right kidney were clamped using a non-traumatic clip for 45 minutes, and then reperfusion was performed.
The hydrochloride of the first optical isomer component (compound (A)) of the formula [IV] of the present invention was dissolved in physiological saline, and 4 mg/kg (before ischemia) and 2 mg/kg (before and after reperfusion) of the compound (A) (6 mg/kg in total) were administered for 10 minutes before ischemia and before and after reperfusion, respectively. On the other hand, the placebo group was subjected to the same procedure as in the compound (A)—administration group in every way except that only physiological saline was administered instead of physiological saline solution of the hydrochloride of the compound (A). […]
For calculation of a creatinine clearance value, the total urine of during 60 minutes before administration and during 0 to 8, 8 to 24, and 24 to 48 hours after administration were collected in each rat, and the urine volume and the value of creatinine in urine were measured. Further, a blood sample was obtained before administration and after 4, 8, 24, and 48 hours of administration and serum creatinine values were measured over time. […]

dog renal function = experiment: Action on dog renal function, anesthetized beagle, ureter cannulation, cumulative i.v. doses; type: in vivo
Description: Method: 5 mg/kg of ketamine hydrochloride (KETALAR FOR INTRAMUSCULAR INJECTION 500 mg, 50 mg/mL, DAIICHI SANKYO COMPANY, LIMITED) was intramuscularly administered to a 10 to 12 kg beagle dog (n=4) as a preanesthetic administration, and then anesthesia was performed by inhale of isoflurane. After intratracheal intubation, isoflurane was inhaled in a range of 1 to 5%, artificial ventilation was carried out, and a tracheal tube was intubated and mounted on a ventilator. The examinations were performed under the ventilation conditions of 10 to 25 mL/kg/stroke and 10 to 20 stroke/min. The lower abdomen was incised, the dog was cannulated in the ureters at the both sides, and urine was continually collected. After the urination became constant, the compound (A) as the first optical isomer component which had been obtained in Example 2 was dissolved in physiological saline, and cumulative doses of 0.1 mg/kg, 0.3 mg/kg, 1 mg/kg, and 3 mg/kg of Compound (A) were administered through the leg veins for 20 minutes each.
A blood sample was obtained before the start of administration of the compound [IV] and every 20 minutes after completion of administration beginning at a time immediately after completion of administration (0 minutes), and changes in urine volume from the ureters at the both sides, Na in urine, K in urine, and a serum creatinine value were examined every 20 minutes.

[2] = tested on: dog with complete atrioventricular block; experiment: Torsades de Pointes in dog with complete atrioventricular block; type: in vivo; settings: dose not given
[3] = Maximum plasma concentration immediately after i.v. administration in adult human; type: in vivo, adult human (male); settings: 0.15 mg/kg i.v. for 20 minutes, hydrochloride, 6 persons
Description: as §1

[4] = Stability and solubility properties of the substance; type: physicochemical
[5] = tested on: dog with complete atrioventricular block; settings: 1.2 mg/kg body weight; Non-Patent Document 3; cited from earlier work

SMILES: COc1ccc2c(c1)CN(C(=O)CCN1CCC(Cc3ccccc3)CC1)CC[S+]2[O-] (single isomer, unassigned) [compound (A), 4-[3-(4-benzylpiperidin-1-yl)propionyl]-7-methoxy-2,3,4,5-tetrahydro-1,4-benzothiazepine-1-oxide]
- total urine volume from 0 to 8 hours after administration (human renal function; 0.05 mg/kg i.v. for 20 minutes): 545.2 (±362.1) mL
- increase in urine volume as compared to the placebo group (significance) (human renal function; 0.05 mg/kg i.v., 0 to 8 hours): significant (p<0.05) increase in urine volume was not recognized
- total urine volume from 0 to 8 hours after administration (human renal function; 0.15 mg/kg i.v. for 20 minutes): 914.2 (±431.0) mL
- increase in urine volume as compared to the placebo group (significance) (human renal function; 0.15 mg/kg i.v., 0 to 8 hours): significant (p<0.05) increase
- urine volume relative to that of the placebo group (human renal function; 0.15 mg/kg i.v., 0 to 8 hours): approximately two times
- serum creatinine value [1]: 3.02 ± 0.82 mg/dL
- excretion amount of sodium (amount of urinary sodium) vs control (dog renal function; after 1 mg/kg and 3 mg/kg i.v. (cumulative doses), n=4, FIG. 5): significant increase
- excretion amount of potassium (amount of urinary potassium) vs control (dog renal function; after 1 mg/kg and 3 mg/kg i.v. (cumulative doses), n=4, FIG. 6): significant increase
- serum creatinine value vs control (dog renal function; after 1 mg/kg and 3 mg/kg i.v. (cumulative doses), n=4, FIG. 7): significant decrease
- urine volume vs control (dog renal function; after 1 mg/kg and 3 mg/kg i.v. (cumulative doses, 20 minutes each), n=4, paired t, FIG. 4): significant increase
- occurrence of Torsades de Pointes [2]: does not cause Torsades de Pointes
- blood concentration immediately after administration [3]: 349.3 ± 93.7 ng/mL
- solubility [4]: water-soluble

SMILES: COc1ccc2c(c1)CN(C(=O)CCN1CCC(Cc3ccccc3)CC1)CCS2 [JTV519, 4-[3-(4-benzylpiperidin-1-yl)propionyl]-7-methoxy-2,3,4,5-tetrahydro-1,4-benzothiazepine]
- occurrence of Torsades de Pointes [5]: Torsades de Pointes that is life-threatening arrhythmia occurs

SMILES: COc1ccc2c(c1)CN(C(=O)CCN1CCC(Cc3ccccc3)CC1)CC[S+]2[O-] (stereo not drawn) [compound having the above formula [Ia]] [4-[3-(4-benzylpiperidin-1-yl)propionyl]-7-methoxy-2,3,4,5-tetrahydro-1,4-benzothiazepine-1-oxide]
- skin irritating property (Skin irritating property): has a skin irritating property
- solubility [4]: easily dissolved in ethanol and dimethyl sulfoxide (DMSO)
- stability ([4]; room temperature): stable to oxygen, humidity, acid, and alkali

SMILES: COc1ccc2c(c1)CN(C(=O)CCN1CCC(Cc3ccccc3)CC1)CC[S+]2[O-] (stereo not drawn) [oxalate of the compound [Ia]] [4-[3-(4-benzylpiperidin-1-yl)propionyl]-7-methoxy-2,3,4,5-tetrahydro-1,4-benzothiazepine-1-oxide]
- solubility [4]: soluble in water, ethanol, and dimethyl sulfoxide
